Laboratory results as given in patent US20220280507A1, “USES OF 5-METHYLTETRAHYDROFOLATE AND ITS COMPOSITION” (Lianyungang Jinkang Hexin Pharmaceutical Co., Ltd., priority 2019, published 2022).

Assays:
[1] = tested on: TNF-α; assay: LPS-induced inflammatory response in astrocytes, TNF-α release (ELISA); type: cell-based, Kunming mice; details: culture supernatant, LPS 1 μg·ml-1 + substance 10 μg·ml-1, 24 h, n=6
Description: (§1) Experiment 9 Inhibition of 5-Methyltetrahydrofolate and Curcumin on LPS-Induced Inflammatory Response in Astrocytes
(§2) The cerebral cortex of Kunming mice at 1˜2 d was taken out under aseptic conditions, washed 3 times with cold PBS after removing residual meninges and blood vessels, prepared into single cell suspension by blowing, centrifuged, the supernatant was discarded, and the precipitant was resuspended in AST basic medium (high-sugar DMEM containing 10% FBS). The suspension was inoculated into a culture flask coated with poly-L-lysine (0.1 mg/ml), and cultured in a CO2 incubator. After 24 h, tissue debris and non-adherent cells were removed by replacing the medium. Afterwards, the medium was replaced every 3 days until the cells reached 80% confluence, then the flask was placed on a constant temperature rotary shaker, where the suspension was centrifuged at 180 r/min, 37° C. for 18 h to remove oligodendrocytes and microglia from the upper layer. Then trypsin digestion was used for subculture. […]
(§3) LPS (1 μg·ml-1), LPS (1 μg·ml-1)+curcumin (10 μg·ml-1), LPS (1 μg·ml-1)+5-MTHF-Ca (10 μg·ml-1); experimental group: LPS (1 μg·ml-1)+curcumin (5 μg·ml-1)+5-MTHF-Ca (5 μg·ml-1). After 24 h, the culture supernatant was collected, and the cytokines IL-6, IL-1β and TNF-α were detected by ELISA.

[2] = tested on: IL-1β; assay: Alcoholic fatty liver model, IL-1β in hippocampus tissue (ELISA); type: in vivo, SD rats; details: liquor model, n=16
Protocol: According to their weight, they were randomly divided into vehicle control group (purified water, ig), model control group (liquor, 10 ml·Kg−1), positive control group (bicyclol, 50 mg·Kg−1, ig), folic acid calcium salt high-dose group (4 mg·Kg−1), folic acid calcium salt medium-dose group (2 mg·Kg−1), folic acid calcium salt low-dose group (1 mg·Kg−1), in half female and half male, and 16 rats in each group. Purified water was used as a negative control, and bicyclol (place of origin: Beijing Xiehe Pharmaceutical Factory, specification: 25 mg/tablet, batch number: H20040467) was used as a positive control drug. Route of administration: all were administered by oral gavage. Dosage of administration: 1 mg·Kg−1, 2 mg·Kg−1, and 4 mg·Kg−1. Frequency of administration: once a day for 60 consecutive days.
Method of administration: administration started at prescribed doses on the day of modeling for 60 consecutive days and ended at the 60th day. At the same time, rats in each group were weighed every other week during administration period to monitor their body weight changes. On the 61st day, rats were dissected and serum was collected for determination of triglyceride (TG), total cholesterol (TC), malondialdehyde (MDA), superoxide dismutase (SOD) and liver histopathologic examination. The brain tissue of rats was taken out, and hippocampus tissue was separated on ice plate, prepared to homogenate with a mass fraction of 10% with purified water, then the homogenate was centrifuged to obtain supernatant. ELISA was used to detect the levels of inflammatory factors TNF-α and IL-1β in hippocampus tissue with continuous spectrum scanning microplate reader.

[3] = tested on: IL-6; assay: LPS-induced inflammatory response in astrocytes, IL-6 release (ELISA); type: cell-based, Kunming mice; details: culture supernatant, LPS 1 μg·ml-1 + substance 10 μg·ml-1, 24 h, n=6
Description: as §1, §2, §3

In the case of 5-methyltetrahydrofolate calcium, the TNF-α [1] is reported as 489.21 ± 10.71 pg/mL, the “IL-1β in hippocampus tissue” value ([2]; 1 mg·kg−1·d−1 ig 60 d) is reported as 63.05 ± 5.31 μg · g^−1 prot and the “IL-1β in hippocampus tissue” value ([2]; 2 mg·kg−1·d−1 ig 60 d) is reported as 63.24 ± 13.44 μg · g^−1 prot. For the same substance, the “IL-1β in hippocampus tissue” value ([2]; 4 mg·kg−1·d−1 ig 60 d) was 55.21 ± 3.59 μg · g^−1 prot and the IL-6 [3] was 993.24 ± 52.05 pg/mL.
